Results as given in patent US20240368121A1, “ESTROGEN RECEPTOR DEGRADERS, PHARMACEUTICAL COMPOSITIONS THEREOF, AND THEIR THERAPEUTIC APPLICATIONS” (BioTheryX, Inc., priority 2021, published 2024).

Legend:
Format in all cases: cell-based
ERα = biological target: T1, ERα (Homo sapiens, UniProt P03372); assay: Protein degradation assay: ERα in MCF-7 cells via western blot; conditions: 6 h; for ERα Protein Degradation 1 nM: 1 nM compound; for ERα Protein Degradation 10 nM: 10 nM compound; for ERα Protein Degradation 100 nM: 100 nM compound
T1 construct: degrading an ERα in MCF-7 cells via a western blot; endogenous in cells; host or cells: MCF-7
T1 sequence (P03372 1-595): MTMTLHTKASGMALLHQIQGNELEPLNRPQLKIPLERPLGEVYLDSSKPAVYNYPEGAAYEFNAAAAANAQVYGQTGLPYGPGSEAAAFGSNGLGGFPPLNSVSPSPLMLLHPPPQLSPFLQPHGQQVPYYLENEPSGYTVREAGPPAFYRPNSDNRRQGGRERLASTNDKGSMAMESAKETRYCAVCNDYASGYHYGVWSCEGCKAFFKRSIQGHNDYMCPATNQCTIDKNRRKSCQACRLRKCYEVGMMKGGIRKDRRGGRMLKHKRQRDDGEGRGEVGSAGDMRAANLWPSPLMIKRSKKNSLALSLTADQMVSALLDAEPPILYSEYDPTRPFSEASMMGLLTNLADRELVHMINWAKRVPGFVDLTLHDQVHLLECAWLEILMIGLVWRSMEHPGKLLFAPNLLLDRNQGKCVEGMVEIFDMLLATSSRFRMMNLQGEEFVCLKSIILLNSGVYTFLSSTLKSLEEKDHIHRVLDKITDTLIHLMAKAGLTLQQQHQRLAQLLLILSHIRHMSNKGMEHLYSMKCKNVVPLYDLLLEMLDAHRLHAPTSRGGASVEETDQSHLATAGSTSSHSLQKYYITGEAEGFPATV
Method in brief: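 MCF-7 cells in MEM/10% FBS with insulin, seeded 300,000/well, treated 6 h at set concentrations (e.g., 1 nM–1 μM). Whole-cell lysates immunoblotted for ERα with GAPDH loading control, chemiluminescent detection; percentage degradation reported in binned categories (≥50%, 25–50%, 10–25%, <10%).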

MCF7 cells = assay: Cell viability assay ([…]-GLO, 6-day treatment); conditions: Homo sapiens, MCF7, 144 h; MCF-7 cells, 6 days, CTG; read-out: Inhibition of Cancerous Cells IC50 MCF-7
Method in brief: (§1)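 MCF7 (MEM) and T47D (RPMI with insulin), both with 10% FBS, at 1,000 cells/well, treated with a 10-point compound dose series for 6 days, with medium and compound refreshed once. Viability read by CellTiter-Glo luminescence.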

T47D cells = assay: Cell viability assay ([…]-GLO, 6-day treatment); conditions: Homo sapiens, 144 h, 6 days, CTG, read-out: Inhibition of Cancerous Cells IC50 T47D
Method in brief: as §1

Compound | ERα Protein Degradation 1 nM (ERα) | ERα Protein Degradation 10 nM (ERα) | ERα Protein Degradation 100 nM (ERα) | IC50 (MCF7 cells) [nM] | IC50 (T47D cells) [nM]
O=C1CCN(c2ccc(OCC(=O)N3CCN(CCCCOc4ccc([C@@H]5c6ccc(O)cc6CC[C@@H]5c5ccccc5)cc4)CC3)cc2)C(=O)N1 [Compound B10, 1-(4-(2-(4-(4-(4-((1R,2S)-6-hydroxy-2-phenyl-1,2,3,4-tetrahydronaphthalen-1-yl)phenoxy)butyl)piperazin-1-yl)-2-oxoethoxy)phenyl)dihydropyrimidine-2,4(1H,3H)-dione] | D (a percentage degradation value of less than 10%) | D (a percentage degradation value of less than 10%) | D (a percentage degradation value of less than 10%) | 1.6 | 0.76
O=C1CCC(Nc2cccc(N3CCN(CC4CCN(c5ccc([C@@H]6c7ccc(O)cc7CC[C@@H]6c6ccccc6)cc5)CC4)CC3)c2)C(=O)N1 (stereo partly drawn) [Compound B13, 3-((3-(4-((1-(4-((1R,2S)-6-hydroxy-2-phenyl-1,2,3,4-tetrahydronaphthalen-1-yl)phenyl)piperidin-4-yl)methyl)piperazin-1-yl)phenyl)amino)piperidine-2,6-dione] | D (a percentage degradation value of less than 10%) | D (a percentage degradation value of less than 10%) | D (a percentage degradation value of less than 10%) | 16 | 4.6
O=C1CCC(Nc2cccc(NC3CCN(CC4CCN(c5ccc([C@@H]6c7ccc(O)cc7CC[C@@H]6c6ccccc6)cc5)CC4)CC3)c2)C(=O)N1 (stereo partly drawn) [Compound B14, 3-((3-((1-((1-(4-((1R,2S)-6-hydroxy-2-phenyl-1,2,3,4-tetrahydronaphthalen-1-yl)phenyl)piperidin-4-yl)methyl)piperidin-4-yl)amino)phenyl)amino)piperidine-2,6-dione] | D (a percentage degradation value of less than 10%) | D (a percentage degradation value of less than 10%) | D (a percentage degradation value of less than 10%) | 0.73 | 1.2
O=C1CCC(Nc2cccc(OCC(=O)N3CCN(CC4CCN(c5ccc([C@@H]6c7ccc(O)cc7CC[C@@H]6c6ccccc6)cc5)CC4)CC3)c2)C(=O)N1 (stereo partly drawn) [Compound B16, 3-((3-(2-(4-((1-(4-((1R,2S)-6-hydroxy-2-phenyl-1,2,3,4-tetrahydronaphthalen-1-yl)phenyl)piperidin-4-yl)methyl)piperazin-1-yl)-2-oxoethoxy)phenyl)amino)piperidine-2,6-dione] | C (a percentage degradation value of less than 25% and no less than 10%) | C (a percentage degradation value of less than 25% and no less than 10%) | C (a percentage degradation value of less than 25% and no less than 10%) | 5 | 2.6
O=C1CCC(Nc2cccc(NC(=O)CN3CCN(CC4CCN(c5ccc([C@@H]6c7ccc(O)cc7CC[C@@H]6c6ccccc6)cc5)CC4)CC3)c2)C(=O)N1 (stereo partly drawn) [Compound B19, N-(3-((2,6-dioxopiperidin-3-yl)amino)phenyl)-2-(4-((1-(4-((1R,2S)-6-hydroxy-2-phenyl-1,2,3,4-tetrahydronaphthalen-1-yl)phenyl)piperidin-4-yl)methyl)piperazin-1-yl)-acetamide] | D (a percentage degradation value of less than 10%) | D (a percentage degradation value of less than 10%) | D (a percentage degradation value of less than 10%) | 2.5 | 0.96
CN(C(=O)CN1CCN(CC2CCN(c3ccc([C@@H]4c5ccc(O)cc5CC[C@@H]4c4ccccc4)cc3)CC2)CC1)c1cccc(NC2CCC(=O)NC2=O)c1 (stereo partly drawn) [Compound B20, N-(3-((2,6-Dioxopiperidin-3-yl)amino)phenyl)-2-(4-((1-(4-((1R,2S)-6-hydroxy-2-phenyl-1,2,3,4-tetrahydronaphthalen-1-yl)phenyl)piperidin-4-yl)methyl)piperazin-1-yl)-N-methylacetamide] | B (a percentage degradation value of less than 50% and no less than 25%) | C (a percentage degradation value of less than 25% and no less than 10%) | D (a percentage degradation value of less than 10%) | 5.7 | 0.93
CC1(Cc2ccc(OCCCCN3CCN(C(=O)COc4cccc(C5CCC(=O)NC5=O)c4)CC3)cc2)C(c2ccc(O)cc2)=Nc2ccc(O)cc21 (stereo not drawn) [Compound D7, 3-(3-(2-(4-(4-(4-((5-Hydroxy-2-(4-hydroxyphenyl)-3-methyl-3H-indol-3-yl)-methyl)phenoxy)butyl)piperazin-1-yl)-2-oxoethoxy)phenyl)piperidine-2,6-dione] | D (a percentage degradation value of less than 10%) | D (a percentage degradation value of less than 10%) | D (a percentage degradation value of less than 10%) | 101 | 44
Cc1c(-c2ccc(O)cc2)n(Cc2ccc(OCCCCN3CCN(C(=O)COc4cccc5c4CN(C4CCC(=O)NC4=O)C5=O)CC3)cc2)c2ccc(O)cc12 (stereo not drawn) [Compound E1, 3-(4-(2-(4-(4-(4-((5-hydroxy-2-(4-hydroxyphenyl)-3-methyl-1H-indol-1-yl)-methyl)phenoxy)butyl)piperazin-1-yl)-2-oxoethoxy)-1-oxoisoindolin-2-yl)piperidine-2,6-dione] | C (a percentage degradation value of less than 25% and no less than 10%) | B (a percentage degradation value of less than 50% and no less than 25%) | B (a percentage degradation value of less than 50% and no less than 25%) | 19 | 0.84
Cc1c(-c2ccc(O)cc2)n(Cc2ccc(OCCCCN3CCN(c4ccc5c(c4)CN(C4CCC(=O)NC4=O)C5=O)CC3)cc2)c2ccc(O)cc12 (stereo not drawn) [Compound E2, 3-(5-(4-(4-(4-((5-Hydroxy-2-(4-hydroxyphenyl)-3-methyl-1H-indol-1-yl)methyl)-phenoxy)butyl)piperazin-1-yl)-1-oxoisoindolin-2-yl)piperidine-2,6-dione] | D (a percentage degradation value of less than 10%) | D (a percentage degradation value of less than 10%) | D (a percentage degradation value of less than 10%) | 0.45 | 0.25
Cc1c(-c2ccc(O)cc2)n(Cc2ccc(OCCCCN3CCN(C(=O)COc4ccc5c(c4)CN(C4CCC(=O)NC4=O)C5=O)CC3)cc2)c2ccc(O)cc12 (stereo not drawn) [Compound E3, 3-(5-(2-(4-(4-(4-((5-Hydroxy-2-(4-hydroxyphenyl)-3-methyl-1H-indol-1-yl)-methyl)phenoxy)butyl)piperazin-1-yl)-2-oxoethoxy)-1-oxoisoindolin-2-yl)piperidine-2,6-dione] | B (a percentage degradation value of less than 50% and no less than 25%) | B (a percentage degradation value of less than 50% and no less than 25%) | B (a percentage degradation value of less than 50% and no less than 25%) | 4.5 | 3.2
Cc1c(-c2ccc(O)cc2)n(Cc2ccc(N3CCC(CN4CCN(c5ccc6c(c5)CN(C5CCC(=O)NC5=O)C6=O)CC4)CC3)cc2)c2ccc(O)cc12 (stereo not drawn) [Compound E4, 3-(5-(4-((1-(4-((5-hydroxy-2-(4-hydroxyphenyl)-3-methyl-1H-indol-1-yl)-methyl)phenyl)piperidin-4-yl)methyl)piperazin-1-yl)-1-oxoisoindolin-2-yl)piperidine-2,6-dione] | B (a percentage degradation value of less than 50% and no less than 25%) | B (a percentage degradation value of less than 50% and no less than 25%) | C (a percentage degradation value of less than 25% and no less than 10%) | 0.38 | 0.17
Cc1c(-c2ccc(O)cc2)n(Cc2ccc(OCCCCNCc3ccc(OCc4scc5c4CN(C4CCC(=O)NC4=O)C5=O)cc3)cc2)c2ccc(O)cc12 (stereo not drawn) [Compound E5, 3-(1-((4-(((4-(4-((5-hydroxy-2-(4-hydroxyphenyl)-3-methyl-1H-indol-1-yl)-methyl)phenoxy)butyl)amino)methyl)phenoxy)methyl)-4-oxo-4H-thieno[3,4-c]pyrrol-5(6H)-yl)-piperidine-2,6-dione] | D (a percentage degradation value of less than 10%) | D (a percentage degradation value of less than 10%) | D (a percentage degradation value of less than 10%) | 0.09 | 0.02
